Drawing on patent publication US20250368628A1, “METHODS AND COMPOUNDS FOR MODULATING INHERITED GENETIC DISEASES” (Design Therapeutics, Inc., priority 2022, published 2025), this text covers EC50 for 23 compounds.

The structures appear in SMILES notation.

In the first assay the test system is Myotonic Dystrophy 1 affected patient fibroblasts (Coriel GM04602; 1600 CTG repeats). Put plainly: DM1 foci reduction assay (EC50 assay; CAG10-Cy3 FISH, foci per nucleus). It counts as cell-based. As to conditions: Homo sapiens, Fibroblast; DM1 patient fibroblasts, 48 h treatment, foci per nucleus; read-out: DM1 EC50, 48 h. How it is done:
DM1 Foci Reduction Assay Methods
Myotonic Dystrophy 1 affected patient fibroblasts (Coriel GM04602; 1600 CTG repeats) and wild type fibroblasts (Coriell GM07492; control line) were cultured separately in Gibco DMEM (1×)+4.5 g/L D-Glucose+L-Glutamine+[…] Sodium Pyruvate, supplemented with 10% FBS and 1× Pen/Strep. Cells were maintained in an incubator at 37° C. and 5% CO2 with media refreshed every 48-72 hours.
At 90-95% confluency, both cell lines were harvested using Trypl-E then pelleted at 500×g for 5 minutes and were resuspended in fresh media. DM1 fibroblasts were seeded in Agilent 96 well black plates at a density of 5,000 cells/well in 200 μL media; and 8 wells were reserved for control fibroblasts. Plates were returned to incubator for 24 hours at 37° C. and 5% CO2.
Compounds were diluted from 10 mM stock to 1 mM in DMSO and then diluted once more to 6 μM (2× concentration) in media. Media was removed from all plates and cells were replenished with 100 μL media. Cells were treated in 8-point dose response, 1:3 fold dilution, 3 μM top dose via addition of 100 μL of 6 μM (2× concentration) compound to the 100 μL media with cells. Plates were returned to incubator for 48 hours at 37° C. and 5% CO2.
Following treatment, compounds were removed, and plates were washed with PBS, then cells were fixed in 75 μL 4% PFA solution for 20 minutes at room temperature. Plates were washed twice with PBS and twice with cold 70% ethanol before permeabilization with 250 μL cold 70% ethanol for 24-72 hours at −20° C.
After permeabilization, plates were washed once with a 30% formamide and 2×SSC buffer and rehydrated in that buffer for 15 minutes at room temperature. Cells were incubated overnight at 37° C. in 75 μL of a hybridization solution containing 30% formamide, 2×SSC, 25 mg/mL dextran sulfate, 2.5 mg/mL BSA, 0.2 μg/mL Herring sperm DNA, 2 mM vanadyl-ribonucleoside complex, and 5 nM CAG10-Cy3 probe.
Plates were washed once with 30% formamide in 2×SSC buffer, then twice with the buffer for 30 minutes at 37° C., 300 RPM in an incubating plate shaker. Cells were stained with 75 μL of 2.5 μg/mL DAPI in PBS for 5 minutes at room temperature. Plates were then washed twice with PBS and stored in 250 μL PBS. Plates were sealed with adhesive foil and wiped down with 70% ethanol.
Cells were imaged on a Cytation5 with a 20× objective sampling from 4 areas of each well. Nuclei were captured under DAPI channel and foci under RFP channel. Plates were analyzed on an average foci per nucleus per well basis.
In the case of `COCCOCCOCCOCCN(CCOCCOCCOCCOC)C(=O)CCCCn1cc(NC(=O)c2nc(NC(=O)CCNC(=O)c3cc(NC(=O)c4nccn4C)cn3C)cn2C)cc1C(=O)NCCCC(=O)Nc1cn(C)c(C(=O)NCCC(=O)Nc2cc(C(=O)Nc3cn(C)c(C(=O)NCCC(=O)N4CCC(N5CCN(C(=O)OC(C)(C)C)CC5)CC4)n3)n(C)c2)n1` [Compound B-242], the EC50 (usually the concentration needed to bring the measured effect to its halfway point) is over 1 µM.
Regarding `CCN(CC)CCCC[C@H](NC(C)=O)C(=O)NCCOCCOCCOCCNC(=O)CCNC(=O)c1nc(NC(=O)c2cc(NC(=O)CCNC(=O)c3nc(NC(=O)CCCNC(=O)c4cc(NC(=O)c5nc(NC(=O)CCNC(=O)c6cc(NC(=O)c7nccn7C)cn6C)cn5C)cn4C)cn3C)cn2C)cn1C` [Compound B-86], the EC50 is over 1 µM.
As for `Cn1cc(NC(=O)c2nc(NC(=O)CCNC(=O)c3cc(NC(=O)c4nccn4C)cn3C)cn2C)cc1C(=O)NCCCC(=O)Nc1cn(C)c(C(=O)NCCC(=O)Nc2cc(C(=O)Nc3cn(C)c(C(=O)NCCC(=O)N4CCN(C5CCN(c6ccc([N+](=O)[O-])cc6)CC5)CC4)n3)n(C)c2)n1` [Compound B-29, 1-Methyl-4-{1-methyl-4-[3-({1-methyl-4-[4-({1-methyl-4-[1-methyl-4-(3-{[1-methyl-4-(1-methylimidazole-2-amido)pyrrol-2-yl]formamido}propanamido)imidazole-2-amido]pyrrol-2-yl}formamido)butanamido]imidazol-2-yl}formamido)propanamido]pyrrole-2-amido}-N-(3-{4-[1-(4-nitrophenyl)piperidin-4-yl]piperazin-1-yl}-3-oxopropyl)imidazole-2-carboxamide], the EC50 was over 1 µM.
Regarding `CCCCCCN1CCC(C#CC#CC2CCN(CCCCCNC(=O)CCNC(=O)c3nc(NC(=O)c4cc(NC(=O)CCNC(=O)c5nc(NC(=O)CCCNC(=O)c6cc(NC(=O)c7nc(NC(=O)CCNC(=O)c8cc(NC(=O)c9nccn9C)cn8C)cn7C)cn6C)cn5C)cn4C)cn3C)CC2)CC1` [Compound B-183], the EC50 is over 1 µM.
Consider `CC(C)CCC(=O)N1CCC(C#CC#CCNC(=O)CCNC(=O)c2nc(NC(=O)c3cc(NC(=O)CCNC(=O)c4nc(NC(=O)CCCNC(=O)c5cc(NC(=O)c6nc(NC(=O)CCNC(=O)c7cc(NC(=O)c8nccn8C)cn7C)cn6C)cn5C)cn4C)cn3C)cn2C)CC1` [Compound B-190], for which the EC50 was over 1 µM.
Still for that read-out and setting: the value for `CCN(CC)CCCC[C@H](NC(=O)c1cccc(C(=O)OC(C)(C)C)c1)C(=O)NCCOCCOCCOCCNC(=O)CCNC(=O)c1nc(NC(=O)c2cc(NC(=O)CCNC(=O)c3nc(NC(=O)CCCNC(=O)c4cc(NC(=O)c5nc(NC(=O)CCNC(=O)c6cc(NC(=O)c7nccn7C)cn6C)cn5C)cn4C)cn3C)cn2C)cn1C` [Compound B-355] was 0.1 to 0.5 µM.
For the compound `Cn1cc(NC(=O)c2nc(NC(=O)CCNC(=O)c3cc(NC(=O)c4nccn4C)cn3C)cn2C)cc1C(=O)NCCCC(=O)Nc1cn(C)c(C(=O)NCCC(=O)Nc2cc(C(=O)Nc3cn(C)c(C(=O)NCCC(=O)NCCOCCN4CCN(C5CCN(c6ccc(N)cc6)CC5)CC4)n3)n(C)c2)n1` [Compound B-155], the EC50 is over 1 µM.
As for `Cn1cc(NC(=O)c2nc(NC(=O)CCNC(=O)c3cc(NC(=O)c4nccn4C)cn3C)cn2C)cc1C(=O)NCCCC(=O)Nc1cn(C)c(C(=O)NCCC(=O)Nc2cc(C(=O)Nc3cn(C)c(C(=O)NCCC(=O)NCCOCCOCCOc4ccc(NC(=O)OCc5ccccc5)cc4)n3)n(C)c2)n1` [Compound B-13], the EC50 is over 1 µM.
Take `Cn1cc(NC(=O)c2nc(NC(=O)CCNC(=O)c3cc(NC(=O)c4nccn4C)cn3C)cn2C)cc1C(=O)NCCCC(=O)Nc1cn(C)c(C(=O)NCCC(=O)Nc2cc(C(=O)Nc3cn(C)c(C(=O)NCCC(=O)NCCCCCN4CCC(C#CC#CC5CCNCC5)CC4)n3)n(C)c2)n1` [Compound B-336]: the EC50 was over 1 µM.
The same measure, in the same setting: the value for `Cn1cc(NC(=O)c2nc(NC(=O)CCNC(=O)c3cc(NC(=O)c4nccn4C)cn3C)cn2C)cc1C(=O)NCCCC(=O)Nc1cn(C)c(C(=O)NCCC(=O)Nc2cc(C(=O)Nc3cn(C)c(C(=O)N4CC(c5cnc(CNC(=O)OCc6ccccc6)[nH]5)C4)n3)n(C)c2)n1` [Compound B-201] was over 1 µM.
For the compound `CN(C)c1ccc(C#CC#CCNC(=O)CCNC(=O)c2nc(NC(=O)c3cc(NC(=O)CCNC(=O)c4nc(NC(=O)CCCNC(=O)c5cc(NC(=O)c6nc(NC(=O)CCNC(=O)c7cc(NC(=O)c8nccn8C)cn7C)cn6C)cn5C)cn4C)cn3C)cn2C)cc1` [Compound B-133], the EC50 is over 1 µM.
As to `Cn1cc(NC(=O)c2nc(NC(=O)CCNC(=O)c3cc(NC(=O)c4nccn4C)cn3C)cn2C)cc1C(=O)NCCCC(=O)Nc1cn(C)c(C(=O)NCCC(=O)Nc2cc(C(=O)Nc3cn(C)c(C(=O)NCCC(=O)NCC#CC#CC4CCN(C(=O)c5ccc(C(C)(C)C)cc5)CC4)n3)n(C)c2)n1` [Compound B-188], the EC50 was over 1 µM.
The same measure, in the same setting: the value for `CCN(CC)CCCC[C@H](NC(=O)c1cccc(C(=O)O)c1)C(=O)NCCOCCOCCOCCOCCOCCNC(=O)CCNC(=O)c1nc(NC(=O)c2cc(NC(=O)CCNC(=O)c3nc(NC(=O)CCCNC(=O)c4cc(NC(=O)c5nc(NC(=O)CCNC(=O)c6cc(NC(=O)c7nccn7C)cn6C)cn5C)cn4C)cn3C)cn2C)cn1C` [Compound B-222] was 0.5 to 1 µM; that for `Cn1cc(NC(=O)c2nc(NC(=O)CCNC(=O)c3cc(NC(=O)c4nccn4C)cn3C)cn2C)cc1C(=O)NCCCC(=O)Nc1cn(C)c(C(=O)NCCC(=O)Nc2cc(C(=O)Nc3cn(C)c(C(=O)NCCC(=O)N4CCN(C5CCN(c6ccc(N)cc6)CC5)CC4)n3)n(C)c2)n1` [Compound B-156] was over 1 µM; that for `Cn1cc(NC(=O)c2nc(NC(=O)CCNC(=O)c3cc(NC(=O)c4nccn4C)cn3C)cn2C)cc1C(=O)NCCCC(=O)Nc1cn(C)c(C(=O)NCCC(=O)Nc2cc(C(=O)Nc3cn(C)c(C(=O)NCCCCCCCNC(=O)c4cccc(C(=O)OC(C)(C)C)c4)n3)n(C)c2)n1` [Compound B-338] was over 1 µM.
Consider `CCCNC(=O)CCNC(=O)c1nc(NC(=O)c2cc(NC(=O)CCNC(=O)c3nc(NC(=O)CCCCNC(=O)c4cc(NC(=O)c5nc(NC(=O)CCNC(=O)c6cc(NC(=O)c7nccn7C)cn6C)cn5C)cn4C)cn3C)cn2C)cn1C` [Compound B-317], for which the EC50 was over 1 µM.
`Cn1cnc(NC(=O)c2cc(NC(=O)CCNC(=O)c3nc(NC(=O)CCCNC(=O)c4cc(NC(=O)c5nc(NC(=O)CCNC(=O)c6cc(NC(=O)c7nccn7C)cn6C)cn5C)cn4CCCCCCN=[N+]=[N-])cn3C)cn2C)c1` [Compound B-252]: the EC50 was over 1 µM.
On the same count and under the same terms, the value for `Cn1cc(NC(=O)c2nc(NC(=O)CCNC(=O)c3cc(NC(=O)c4nccn4C)cn3C)cn2C)cc1C(=O)NCCCC(=O)Nc1cn(C)c(C(=O)NCCC(=O)Nc2cc(C(=O)Nc3cn(C)c(C(=O)NCCC(=O)N4CCN(CC5CCNCC5)CC4)n3)n(C)c2)n1` [Compound B-114] was 0.5 to 1 µM.
Turning to `Cn1cc(NC(=O)c2nc(NC(=O)CCNC(=O)c3cc(NC(=O)c4nccn4C)cn3C)cn2C)cc1C(=O)NCCCC(=O)Nc1cn(C)c(C(=O)NCCC(=O)Nc2cc(C(=O)Nc3cn(C)c(C(=O)NCCCN4CCC(C#CC#CC5CCN(C(=O)OC(C)(C)C)CC5)CC4)n3)n(C)c2)n1` [Compound B-360], the EC50 was under 0.1 µM.
With `CN(CCCNC(=O)OC(C)(C)C)CCCNC(=O)c1cc(NC(=O)CCNC(=O)c2nc(NC(=O)CCCNC(=O)c3cc(NC(=O)c4nc(NC(=O)CCNC(=O)c5cc(NC(=O)c6nccn6C)cn5C)cn4C)cn3CCCCCCN=[N+]=[N-])cn2C)cn1C` [Compound B-357], the EC50 is over 1 µM.
As for `CCN(CC)CCCC[C@@H](NC(=O)C1CCNCC1)C(=O)NCCOCCOCCOCCOCCOCCNC(=O)CCNC(=O)c1nc(NC(=O)c2cc(NC(=O)CCNC(=O)c3nc(NC(=O)CCCNC(=O)c4cc(NC(=O)c5nc(NC(=O)CCNC(=O)c6cc(NC(=O)c7nccn7C)cn6C)cn5C)cn4C)cn3C)cn2C)cn1C` [Compound B-101], the EC50 was over 1 µM.
As to `CCCCCCCCCCNC(=O)CCNC(=O)c1nc(NC(=O)c2cc(NC(=O)CCNC(=O)c3nc(NC(=O)CCCNC(=O)c4cc(NC(=O)c5nc(NC(=O)CCNC(=O)c6cc(NC(=O)c7nccn7C)cn6C)cn5C)cn4C)cn3C)cn2C)cn1C` [Compound B-40], the EC50 was under 0.1 µM.

Still in this assay, the particulars now being: Homo sapiens, Fibroblast; DM1 patient fibroblasts, foci per nucleus, 48 h treatment; read-out: DM1 EC50, 48 h.
Take `CC(C)n1cc(NC(=O)c2nc(NC(=O)CCNC(=O)c3cc(NC(=O)c4nccn4C)cn3C)cn2C)cc1C(=O)NCC1(CC(=O)Nc2cn(C)c(C(=O)NCCC(=O)Nc3cc(C(=O)Nc4cn(C)c(C(=O)NCCCCN(C)C)n4)n(C)c3)n2)CC1` [Compound B-441]: the EC50 is under 0.1 µM.
